Experiments:
Experiment in all cases: radiometric filter-binding kinase assay
[1] = tested on: AKT2 (human), P31751 [S474D]
BRSK1 (human) = BRSK1 (human) (UniProt Q8TDC3)
CAMKK2 (human) = CAMKK2 (human) (UniProt Q96RR4)
CLK2 (human) = CLK2 (human) (UniProt P49760)
CSK (human) = CSK (human) (UniProt P41240)
CSNK1D (human) = CSNK1D (human) (UniProt P48730)
DYRK3 (human) = DYRK3 (human) (UniProt O43781)
EPHA2 (human) = EPHA2 (human) (UniProt P29317)
FGFR1 (human) = FGFR1 (human) (UniProt P11362)
FLT1 (human) = FLT1 (human) (UniProt P17948)
GSK3B (human) = GSK3B (human) (UniProt P49841)
HIPK1 (human) = HIPK1 (human) (UniProt Q86Z02)
HIPK3 (human) = HIPK3 (human) (UniProt Q9H422)
IGF1R (human) = IGF1R (human) (UniProt P08069)
INSR (human) = INSR (human) (UniProt P06213)
IRAK4 (human) = IRAK4 (human) (UniProt Q9NWZ3)
JAK2 JH1 JH2 (human) = JAK2 JH1 JH2 (human) (UniProt O60674)
LCK (mouse) = details: accession and sequence are those of the human protein
MAP3K1 (human) = MAP3K1 (human) (UniProt Q13233)
MAP3K7 TAB1 (human) = MAP3K7 TAB1 (human) (UniProt Q15750+O43318)
MAPK11 (human) = MAPK11 (human) (UniProt Q15759)
MAPK14 (human) = MAPK14 (human) (UniProt Q16539)
MAPK15 (human) = MAPK15 (human) (UniProt Q8TD08)
MAPKAPK5 (human) = MAPKAPK5 (human) (UniProt Q8IW41)
MARK1 (human) = MARK1 (human) (UniProt Q9P0L2)
MELK (human) = MELK (human) (UniProt Q14680)
MINK1 (human) = MINK1 (human) (UniProt Q8N4C8)
NTRK1 (human) = NTRK1 (human) (UniProt P04629)
PRKCZ (human) = PRKCZ (human) (UniProt Q05513)
RIPK2 (human) = RIPK2 (human) (UniProt O43353)
ROCK2 (rat) = details: accession and sequence are those of the human protein
RPS6KA3 KD1 KD2 (human) = RPS6KA3 KD1 KD2 (human) (UniProt P51812)
SRC (human) = SRC (human) (UniProt P12931)
[2] = biological target: STK11 CAB39 STRADA (human) (UniProt Q9Y376+Q7RTN6+Q15831)
TAOK1 (human) = TAOK1 (human) (UniProt Q7L7X3)

Chain of FGFR1 (human) (P11362 whole entry, looked up): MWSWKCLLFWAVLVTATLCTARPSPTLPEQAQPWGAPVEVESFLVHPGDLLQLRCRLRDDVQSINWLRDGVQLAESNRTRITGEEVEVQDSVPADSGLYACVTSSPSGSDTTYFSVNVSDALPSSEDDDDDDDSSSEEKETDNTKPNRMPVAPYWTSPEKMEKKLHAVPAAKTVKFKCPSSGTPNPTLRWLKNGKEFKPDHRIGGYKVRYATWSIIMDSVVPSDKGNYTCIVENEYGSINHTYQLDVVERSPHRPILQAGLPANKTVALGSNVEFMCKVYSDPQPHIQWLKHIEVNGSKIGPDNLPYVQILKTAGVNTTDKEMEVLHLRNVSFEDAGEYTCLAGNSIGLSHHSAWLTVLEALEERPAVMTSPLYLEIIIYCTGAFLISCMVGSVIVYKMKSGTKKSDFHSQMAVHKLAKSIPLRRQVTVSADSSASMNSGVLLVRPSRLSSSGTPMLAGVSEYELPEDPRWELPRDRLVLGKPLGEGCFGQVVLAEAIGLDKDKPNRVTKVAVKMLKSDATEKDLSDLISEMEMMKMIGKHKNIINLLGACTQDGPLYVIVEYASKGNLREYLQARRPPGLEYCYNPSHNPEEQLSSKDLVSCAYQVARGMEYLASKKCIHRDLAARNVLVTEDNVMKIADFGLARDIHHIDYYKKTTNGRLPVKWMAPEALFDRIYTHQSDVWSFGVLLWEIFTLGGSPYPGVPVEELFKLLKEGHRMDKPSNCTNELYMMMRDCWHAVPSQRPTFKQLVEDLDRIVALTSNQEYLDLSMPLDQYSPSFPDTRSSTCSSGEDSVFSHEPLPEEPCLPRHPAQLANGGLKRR
Chain of EPHA2 (human) (P29317 whole entry, looked up): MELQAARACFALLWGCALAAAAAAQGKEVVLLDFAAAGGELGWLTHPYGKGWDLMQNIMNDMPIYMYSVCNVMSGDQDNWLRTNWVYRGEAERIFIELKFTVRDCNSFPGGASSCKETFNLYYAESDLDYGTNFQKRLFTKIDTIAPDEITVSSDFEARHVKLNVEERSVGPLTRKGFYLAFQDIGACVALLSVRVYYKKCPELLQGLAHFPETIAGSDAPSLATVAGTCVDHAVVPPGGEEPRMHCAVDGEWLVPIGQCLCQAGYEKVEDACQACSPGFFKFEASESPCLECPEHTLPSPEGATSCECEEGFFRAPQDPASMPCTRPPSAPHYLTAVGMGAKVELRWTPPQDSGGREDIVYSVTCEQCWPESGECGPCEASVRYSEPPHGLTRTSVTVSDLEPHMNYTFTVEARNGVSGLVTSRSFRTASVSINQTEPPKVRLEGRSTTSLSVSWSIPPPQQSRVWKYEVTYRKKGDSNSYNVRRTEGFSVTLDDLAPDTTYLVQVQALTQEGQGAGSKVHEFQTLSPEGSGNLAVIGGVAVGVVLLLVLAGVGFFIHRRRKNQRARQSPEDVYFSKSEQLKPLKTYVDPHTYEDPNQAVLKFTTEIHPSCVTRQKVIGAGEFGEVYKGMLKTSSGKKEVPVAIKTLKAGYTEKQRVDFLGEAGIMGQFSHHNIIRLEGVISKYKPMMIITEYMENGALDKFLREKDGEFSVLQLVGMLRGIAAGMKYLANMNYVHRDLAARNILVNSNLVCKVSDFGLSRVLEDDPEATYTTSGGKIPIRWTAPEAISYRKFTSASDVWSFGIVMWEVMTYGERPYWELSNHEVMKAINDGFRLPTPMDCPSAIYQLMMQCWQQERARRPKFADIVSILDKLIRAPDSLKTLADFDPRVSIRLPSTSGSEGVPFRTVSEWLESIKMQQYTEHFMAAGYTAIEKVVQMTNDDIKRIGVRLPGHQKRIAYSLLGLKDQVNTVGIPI
Chain of GSK3B (human) (P49841 whole entry, looked up): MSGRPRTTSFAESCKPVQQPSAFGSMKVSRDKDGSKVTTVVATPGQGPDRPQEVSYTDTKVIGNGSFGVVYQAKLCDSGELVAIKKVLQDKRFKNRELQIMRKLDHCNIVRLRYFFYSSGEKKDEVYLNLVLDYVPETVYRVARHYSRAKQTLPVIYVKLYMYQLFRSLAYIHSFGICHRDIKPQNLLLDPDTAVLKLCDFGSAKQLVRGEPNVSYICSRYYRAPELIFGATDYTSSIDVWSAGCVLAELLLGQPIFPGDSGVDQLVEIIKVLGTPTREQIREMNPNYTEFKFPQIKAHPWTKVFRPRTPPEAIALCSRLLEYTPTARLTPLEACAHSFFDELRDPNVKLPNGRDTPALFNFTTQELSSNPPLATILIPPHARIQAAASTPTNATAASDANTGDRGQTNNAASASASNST
Chain of FLT1 (human) (P17948 whole entry, looked up): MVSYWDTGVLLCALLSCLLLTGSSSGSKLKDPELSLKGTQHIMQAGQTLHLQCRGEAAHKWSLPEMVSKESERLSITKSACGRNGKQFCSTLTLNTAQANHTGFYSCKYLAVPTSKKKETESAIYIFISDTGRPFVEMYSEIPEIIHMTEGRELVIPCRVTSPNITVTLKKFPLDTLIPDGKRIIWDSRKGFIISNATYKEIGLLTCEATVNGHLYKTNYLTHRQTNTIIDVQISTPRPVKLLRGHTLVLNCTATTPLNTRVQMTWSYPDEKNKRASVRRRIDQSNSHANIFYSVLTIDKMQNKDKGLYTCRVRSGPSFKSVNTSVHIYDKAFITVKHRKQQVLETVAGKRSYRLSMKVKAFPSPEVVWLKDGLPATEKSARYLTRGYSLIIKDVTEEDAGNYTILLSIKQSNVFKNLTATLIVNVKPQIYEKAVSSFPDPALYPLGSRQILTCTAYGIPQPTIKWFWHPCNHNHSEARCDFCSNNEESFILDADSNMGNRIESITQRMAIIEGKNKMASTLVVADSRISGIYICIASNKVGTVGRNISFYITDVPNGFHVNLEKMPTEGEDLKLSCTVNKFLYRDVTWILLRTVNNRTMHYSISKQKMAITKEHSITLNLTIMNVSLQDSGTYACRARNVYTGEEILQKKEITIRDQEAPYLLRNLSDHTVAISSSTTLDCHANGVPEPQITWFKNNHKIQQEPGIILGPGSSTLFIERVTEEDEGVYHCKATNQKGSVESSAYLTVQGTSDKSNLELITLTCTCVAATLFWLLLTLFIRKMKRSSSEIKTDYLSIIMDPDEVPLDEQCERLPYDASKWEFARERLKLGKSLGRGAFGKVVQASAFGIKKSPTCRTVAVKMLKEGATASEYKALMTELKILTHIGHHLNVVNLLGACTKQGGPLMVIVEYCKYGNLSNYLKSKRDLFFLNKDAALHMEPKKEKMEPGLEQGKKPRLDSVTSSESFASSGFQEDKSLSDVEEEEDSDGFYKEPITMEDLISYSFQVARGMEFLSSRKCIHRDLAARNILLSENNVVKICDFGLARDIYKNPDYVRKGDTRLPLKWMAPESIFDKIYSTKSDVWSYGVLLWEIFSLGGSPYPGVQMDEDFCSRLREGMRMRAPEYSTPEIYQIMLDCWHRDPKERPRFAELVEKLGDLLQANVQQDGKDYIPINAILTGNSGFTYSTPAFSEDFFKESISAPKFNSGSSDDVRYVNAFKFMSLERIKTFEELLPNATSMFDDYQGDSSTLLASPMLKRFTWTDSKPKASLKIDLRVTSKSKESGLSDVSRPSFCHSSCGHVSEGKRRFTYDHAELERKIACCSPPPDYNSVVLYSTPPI
Chain of CAMKK2 (human) (Q96RR4 whole entry, looked up): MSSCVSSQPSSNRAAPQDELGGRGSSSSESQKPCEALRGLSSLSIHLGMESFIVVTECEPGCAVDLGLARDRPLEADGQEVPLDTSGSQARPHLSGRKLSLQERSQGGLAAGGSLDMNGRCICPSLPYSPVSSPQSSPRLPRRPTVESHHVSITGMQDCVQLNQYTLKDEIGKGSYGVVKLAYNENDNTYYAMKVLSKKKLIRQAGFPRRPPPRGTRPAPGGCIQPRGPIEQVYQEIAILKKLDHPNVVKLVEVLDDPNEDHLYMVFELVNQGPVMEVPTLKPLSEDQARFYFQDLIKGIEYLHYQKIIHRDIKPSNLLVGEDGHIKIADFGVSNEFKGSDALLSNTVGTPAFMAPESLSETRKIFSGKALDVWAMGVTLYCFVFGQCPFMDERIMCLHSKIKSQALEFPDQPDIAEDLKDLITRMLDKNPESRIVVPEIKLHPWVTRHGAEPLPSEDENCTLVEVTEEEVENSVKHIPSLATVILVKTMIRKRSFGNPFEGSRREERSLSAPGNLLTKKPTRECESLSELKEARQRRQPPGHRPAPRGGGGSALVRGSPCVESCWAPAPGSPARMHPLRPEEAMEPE
Chain of CSNK1D (human) (P48730 whole entry, looked up): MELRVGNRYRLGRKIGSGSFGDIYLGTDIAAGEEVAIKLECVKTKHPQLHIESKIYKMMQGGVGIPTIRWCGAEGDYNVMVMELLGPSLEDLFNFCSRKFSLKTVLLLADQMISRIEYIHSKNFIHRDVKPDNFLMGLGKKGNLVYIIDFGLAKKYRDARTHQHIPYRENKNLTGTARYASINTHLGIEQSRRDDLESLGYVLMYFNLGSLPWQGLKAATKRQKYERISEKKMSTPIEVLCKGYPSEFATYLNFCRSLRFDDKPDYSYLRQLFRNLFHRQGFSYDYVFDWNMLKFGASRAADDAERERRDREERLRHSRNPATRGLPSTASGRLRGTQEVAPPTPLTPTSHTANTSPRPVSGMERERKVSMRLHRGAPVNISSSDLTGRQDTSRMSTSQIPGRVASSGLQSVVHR
Chain of AKT2 (human), P31751 [S474D] (P31751 whole entry S474D, looked up): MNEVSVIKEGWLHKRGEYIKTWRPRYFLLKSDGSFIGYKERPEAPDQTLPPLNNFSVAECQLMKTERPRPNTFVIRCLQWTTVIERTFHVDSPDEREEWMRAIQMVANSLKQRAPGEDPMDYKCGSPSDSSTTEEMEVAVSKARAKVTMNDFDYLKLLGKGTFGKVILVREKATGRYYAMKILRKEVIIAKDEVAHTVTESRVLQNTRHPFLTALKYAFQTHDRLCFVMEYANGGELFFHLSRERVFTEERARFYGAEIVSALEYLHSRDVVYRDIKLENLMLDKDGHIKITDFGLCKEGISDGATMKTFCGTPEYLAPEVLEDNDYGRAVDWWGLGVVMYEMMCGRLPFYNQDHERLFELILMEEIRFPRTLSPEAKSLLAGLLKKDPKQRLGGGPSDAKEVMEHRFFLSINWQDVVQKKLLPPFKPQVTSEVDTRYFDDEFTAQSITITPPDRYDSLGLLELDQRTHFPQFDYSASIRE

## CNc1nc(-c2ccc3c(N)n[nH]c3c2)cc(N2C[C@@H](C(=O)NC3CCCCC3)CC[C@H]2C)n1
[1]; compound 0.01 µM
  residual activity: 125%
[1]; compound 0.1 µM
  residual activity: 118%
[1]; compound 1.0 µM
  residual activity: 107%
[1]; compound 10.0 µM
  residual activity: 56%
BRSK1 (human); compound 0.01 µM
  residual activity: 110%
BRSK1 (human); compound 0.1 µM
  residual activity: 95%
BRSK1 (human); compound 1.0 µM
  residual activity: 53%
BRSK1 (human); compound 10.0 µM
  residual activity: 11%
CAMKK2 (human); compound 0.01 µM
  residual activity: 112%
CAMKK2 (human); compound 0.1 µM
  residual activity: 123%
CAMKK2 (human); compound 1.0 µM
  residual activity: 99%
CAMKK2 (human); compound 10.0 µM
  residual activity: 91%
CLK2 (human); compound 1.0 µM
  residual activity: 98%
CLK2 (human); compound 10.0 µM
  residual activity: 88%
CSK (human); compound 0.01 µM
  residual activity: 103%
CSK (human); compound 0.1 µM
  residual activity: 104%
CSK (human); compound 1.0 µM
  residual activity: 100%
CSK (human); compound 10.0 µM
  residual activity: 93%
CSNK1D (human); compound 0.01 µM
  residual activity: 100%
CSNK1D (human); compound 0.1 µM
  residual activity: 108%
CSNK1D (human); compound 1.0 µM
  residual activity: 96%
CSNK1D (human); compound 10.0 µM
  residual activity: 88%
DYRK3 (human); compound 0.01 µM
  residual activity: 100%
DYRK3 (human); compound 0.1 µM
  residual activity: 103%
DYRK3 (human); compound 1.0 µM
  residual activity: 94%
DYRK3 (human); compound 10.0 µM
  residual activity: 88%
EPHA2 (human); compound 0.01 µM
  residual activity: 110%
EPHA2 (human); compound 0.1 µM
  residual activity: 118%
EPHA2 (human); compound 1.0 µM
  residual activity: 100%
EPHA2 (human); compound 10.0 µM
  residual activity: 84%
FGFR1 (human); compound 0.01 µM
  residual activity: 119%
FGFR1 (human); compound 0.1 µM
  residual activity: 119%
FGFR1 (human); compound 1.0 µM
  residual activity: 105%
FGFR1 (human); compound 10.0 µM
  residual activity: 88%
FLT1 (human); compound 0.01 µM
  residual activity: 98%
FLT1 (human); compound 0.1 µM
  residual activity: 108%
FLT1 (human); compound 1.0 µM
  residual activity: 89%
FLT1 (human); compound 10.0 µM
  residual activity: 64%
GSK3B (human); compound 0.01 µM
  residual activity: 108%
GSK3B (human); compound 0.1 µM
  residual activity: 111%
GSK3B (human); compound 1.0 µM
  residual activity: 106%
HIPK1 (human); compound 0.01 µM
  residual activity: 102%
HIPK1 (human); compound 0.1 µM
  residual activity: 105%
HIPK1 (human); compound 1.0 µM
  residual activity: 94%
HIPK1 (human); compound 10.0 µM
  residual activity: 112%
HIPK3 (human); compound 0.01 µM
  residual activity: 111%
HIPK3 (human); compound 0.1 µM
  residual activity: 105%
HIPK3 (human); compound 1.0 µM
  residual activity: 99%
HIPK3 (human); compound 10.0 µM
  residual activity: 103%
IGF1R (human); compound 0.1 µM
  residual activity: 115%
IGF1R (human); compound 1.0 µM
  residual activity: 98%
IGF1R (human); compound 10.0 µM
  residual activity: 100%
INSR (human); compound 0.01 µM
  residual activity: 101%
INSR (human); compound 0.1 µM
  residual activity: 103%
INSR (human); compound 1.0 µM
  residual activity: 101%
INSR (human); compound 10.0 µM
  residual activity: 89%
IRAK4 (human); compound 0.01 µM
  residual activity: 109%
IRAK4 (human); compound 0.1 µM
  residual activity: 112%
IRAK4 (human); compound 1.0 µM
  residual activity: 92%
IRAK4 (human); compound 10.0 µM
  residual activity: 99%
JAK2 JH1 JH2 (human); compound 1.0 µM
  residual activity: 108%
JAK2 JH1 JH2 (human); compound 10.0 µM
  residual activity: 99%
LCK (mouse); compound 0.01 µM
  residual activity: 112%
LCK (mouse); compound 0.1 µM
  residual activity: 107%
LCK (mouse); compound 1.0 µM
  residual activity: 97%
LCK (mouse); compound 10.0 µM
  residual activity: 99%
MAP3K1 (human); compound 1.0 µM
  residual activity: 87%
MAP3K1 (human); compound 10.0 µM
  residual activity: 104%
MAP3K7 TAB1 (human); compound 1.0 µM
  residual activity: 99%
MAP3K7 TAB1 (human); compound 10.0 µM
  residual activity: 79%
MAPK11 (human); compound 0.01 µM
  residual activity: 113%
MAPK11 (human); compound 0.1 µM
  residual activity: 129%
MAPK11 (human); compound 1.0 µM
  residual activity: 105%
MAPK11 (human); compound 10.0 µM
  residual activity: 109%
MAPK14 (human); compound 0.01 µM
  residual activity: 105%
MAPK14 (human); compound 0.1 µM
  residual activity: 109%
MAPK14 (human); compound 1.0 µM
  residual activity: 100%
MAPK14 (human); compound 10.0 µM
  residual activity: 99%
MAPK15 (human); compound 0.01 µM
  residual activity: 106%
MAPK15 (human); compound 0.1 µM
  residual activity: 117%
MAPK15 (human); compound 1.0 µM
  residual activity: 99%
MAPK15 (human); compound 10.0 µM
  residual activity: 83%
MAPKAPK5 (human); compound 0.01 µM
  residual activity: 81%
MAPKAPK5 (human); compound 0.1 µM
  residual activity: 92%
MAPKAPK5 (human); compound 1.0 µM
  residual activity: 110%
MAPKAPK5 (human); compound 10.0 µM
  residual activity: 95%
MARK1 (human); compound 1.0 µM
  residual activity: 99%
MARK1 (human); compound 10.0 µM
  residual activity: 84%
MELK (human); compound 0.01 µM
  residual activity: 115%
MELK (human); compound 0.1 µM
  residual activity: 77%
MELK (human); compound 1.0 µM
  residual activity: 31%
MELK (human); compound 10.0 µM
  residual activity: 22%
MINK1 (human); compound 0.01 µM
  residual activity: 121%
MINK1 (human); compound 0.1 µM
  residual activity: 110%
MINK1 (human); compound 1.0 µM
  residual activity: 89%
MINK1 (human); compound 10.0 µM
  residual activity: 74%
NTRK1 (human); compound 1.0 µM
  residual activity: 94%
NTRK1 (human); compound 10.0 µM
  residual activity: 84%
PRKCZ (human); compound 0.01 µM
  residual activity: 113%
PRKCZ (human); compound 0.1 µM
  residual activity: 105%
PRKCZ (human); compound 1.0 µM
  residual activity: 74%
PRKCZ (human); compound 10.0 µM
  residual activity: 23%
RIPK2 (human); compound 0.01 µM
  residual activity: 110%
RIPK2 (human); compound 0.1 µM
  residual activity: 114%
RIPK2 (human); compound 1.0 µM
  residual activity: 116%
RIPK2 (human); compound 10.0 µM
  residual activity: 100%
ROCK2 (rat); compound 0.01 µM
  residual activity: 96%
ROCK2 (rat); compound 0.1 µM
  residual activity: 92%
ROCK2 (rat); compound 1.0 µM
  residual activity: 67%
ROCK2 (rat); compound 10.0 µM
  residual activity: 27%
RPS6KA3 KD1 KD2 (human); compound 0.1 µM
  residual activity: 97%
RPS6KA3 KD1 KD2 (human); compound 1.0 µM
  residual activity: 79%
RPS6KA3 KD1 KD2 (human); compound 10.0 µM
  residual activity: 28%
SRC (human); compound 0.01 µM
  residual activity: 101%
SRC (human); compound 0.1 µM
  residual activity: 105%
SRC (human); compound 1.0 µM
  residual activity: 95%
[2]; compound 0.01 µM
  residual activity: 104%
[2]; compound 0.1 µM
  residual activity: 124%
[2]; compound 1.0 µM
  residual activity: 110%
[2]; compound 10.0 µM
  residual activity: 103%
TAOK1 (human); compound 1.0 µM
  residual activity: 86%
TAOK1 (human); compound 10.0 µM
  residual activity: 96%
